Experimental data taken from patent US20220168430A1, “THERAPEUTIC METHODS FOR TREATING HEPATITIS B” (priority 2019, published 2022).

Key:
HBsAg [1] = test: Liver HBsAg by ELISA in AAV-HBV mouse model (Example 18); type: in vivo, C57BL/6 mice; HBV serotype Ayw, genotype D; conditions: Study Day 42; siRNA 3 mg/kg s.c. Days 0 and 28, encapsidation inhibitor 100 mg/kg and/or TDF 1 mg/kg oral daily Days 0-41; group mean ± SEM, n=6
Protocol: Prior to treatment start, 1×10^11 viral genomes of an adeno-associated virus (AAV) vector carrying a 1.3-fold overlength copy of an HBV genome (serotype Ayw, genotype D) was administered to C57BL/6 mice via intravenous injection. Introduction of this viral vector results in the expression of HBV DNA and HBV surface antigen (HBsAg) amongst other HBV products. Serum HBV DNA levels in mice was measured using a quantitative polymerase chain reaction (QPCR) assay, HBsAg in serum and liver of mice was measured using an enzyme-linked immunosorbent assay (ELISA), and anti-HBsAg antibodies were measured using ELISA.
Treatment effects on serum HBV DNA were determined by collecting a small amount of blood on Days 0 (pre-treatment) and 14, as well as from terminal blood collections at Day 42. Treatment effects on HBsAg in serum and liver were determined from terminal sample collections at Day 42.
Any individual animal samples measured to fall below assay lower limit of quantitation (LLOQ) were reported as the LLOQ value.

HBsAg [2] = test: Serum HBsAg in pHBV1.3 hydrodynamic injection mouse model of HBV (Example 12); type: in vivo, NOD.CB17-Prkdc scid/J mice; HBV genotype D, serotype ayw; conditions: once daily oral from Day 0: RNA destabilizer 10 mg/kg, encapsidation inhibitor 100 mg/kg, nucleos(t)ide analog 0.4 mg/kg, group mean ± SEM, n=7 or 8, from negative control
Protocol: (§1) On Day −7, 10 micrograms of the plasmid pHBV1.3 (constructed based on details provided in Guidotti, L., et al., Journal of Virology, 1995, 69(10): 6158-6169) was administered to NOD.CB 17-Prkdc^scid/J mice via hydrodynamic injection (HDI; rapid 1.6 mL injection into the tail vein). […] As readouts of the anti-HBV effect of the treatments, serum HBV DNA and serum HBsAg were assessed. Serum HBV DNA concentration in mice was measured using a quantitative PCR assay following total DNA extraction using previously published primers and probe sequences (Tanaka, Y., et al., Journal of Medical Virology, 2004, 72: 223-229). Serum HBsAg concentration in mice was measured using a commercially available ELISA kit (HBsAg EIA 3.0 480 Test Kit, Bio-Rad).
(§2) Animals were treated with RNA destabilizer as follows: Starting on Day 0, a 10 mg/kg dosage of RNA destabilizer was administered orally to animals on a once-daily frequency for a total of seven doses across the duration of the study. Animals were treated with encapsidation inhibitor as follows: Starting on Day 0, a 100 mg/kg dosage of encapsidation inhibitor was administered orally to animals on a once-daily frequency for a total of seven doses across the duration of the study. Animals were treated with nucleos(t)ide analog as follows: Starting on Day 0, a 0.4 mg/kg dosage of nucleos(t)ide analog was administered orally to animals on a once-daily frequency for a total of seven doses across the duration of the study. The RNA destabilizer, the encapsidation inhibitor, and nucleos(t)ide analog were each dissolved in the same co-solvent formulation for administration and negative control animals were administered the co-solvent formulation alone. To calculate treatment-specific effects, the treated groups are compared against negative control (vehicle treated) animals.
(§3) The effect of these treatments was determined by collecting blood on Days −1 (prior to study's treatment phase), 4, and 7 and analyzing it for serum HBV DNA and HBsAg content.

HBV DNA = test: Serum HBV DNA in pHBV1.3 hydrodynamic injection mouse model of HBV (Example 12); type: in vivo, NOD.CB17-Prkdc scid/J mice; HBV genotype D, serotype ayw; conditions: once daily oral from Day 0: RNA destabilizer 10 mg/kg, encapsidation inhibitor 100 mg/kg, nucleos(t)ide analog 0.4 mg/kg, group mean ± SEM, n=7 or 8, from negative control
Protocol: as §1, §2, §3

CC(C)OC(=O)OCOP(=O)(CO[C@H](C)Cn1cnc2c(N)ncnc21)OCOC(=O)OC(C)C.O=C(O)/C=C/C(=O)O [TDF, tenofovir disoproxil fumarate, reference compound]
Liver HBsAg (HBsAg [1]): 1.77 ± 0.03 log10 IU/mg liver protein
Serum HBsAg log reduction (HBsAg [2]; Day 4): −0.01 ± 0.12 log
Serum HBsAg log reduction (HBsAg [2]; Day 7): 0.10 ± 0.07 log
Serum HBV DNA log reduction (HBV DNA; Day 4): 1.2 ± 0.2 log
Serum HBV DNA log reduction (HBV DNA; Day 7): 1.7 ± 0.1 log
